Patent publication US5670526A, “1,3,4-oxadiazoles” (Otsuka Pharmaceutical Co., Ltd., priority 1995, dated 1997)

Tests used:
[1] = system: Concanavalin A (ConA)-induced liver injury; assay: Concanavalin A (ConA)-induced liver injury in mice, serum SGOT; type: in vivo, C57BL/6 mice; settings: Mus musculus, ip, ConA 15 mg/kg i.v., 17 hours, read-out: SGOT (% decrease); for inhibition in vivo at 50 mg/kg: 50 mg/kg i.p.
Experimental: The following protocol was used for the Concanavalin A (ConA)-induced liver injury in mice. C57BL/6 mice were used. A solution of ConA (Sigma)in PBS was prepared at a concentration of 1.5 mg/ml. The mice were administered, i.p., with […] of a 10% DMSO solution containing varying amounts (adjusted to give 25 mg/kg to 50 mg/kg of compound) of the representative compounds of interest. Fifteen minutes later, the mice were treated via the tail vein with 15 mg/kg of ConA in PBS along with […] of 10% DMSO solution.
The mice were sacrificed after 17 hours and the blood collected into small conical tubes. The tubes were centrifuged and the serum collected and assayed for serum glutamic oxaloacetic transaminase (SGOT) (Sigma GOT kit). The high level enzyme standard (Sigma) was used to make the standard curve, as 100(undiluted), 50, 25, 12.5 and 0 S-F units/mi. Samples were diluted 1:5, 1:25 and 1:125 by adding 25 μl of serum to 100 μl of H2 O and serially diluting 25 μl into 100 μl two more times. Then 100 μl of the Sigma substrate were added to each tube along with 20 μl of each diluted sample and enzyme standard. The tube was incubated in a 37° C. bath with gentle shaking for 1 hour. To that was added […] of colorizing reagent and the tube was left to stand for 30 minutes. Then 500 μl of 0.8N NaOH solution were added, the tubes were capped and inverted to mix thoroughly. A 150 μl aliquot of each sample and 150 μl of the standard were added to wells of a 96-well plate and color formation was monitored at 490 nm. The amounts of SGOT were calculated using a standard curve, converted to Sigma-Frankel units/ml.

[2] = system: Neutrophil migration; assay: Immune complex (BSA/anti-BSA) induced neutrophil migration into mouse skin, myeloperoxidase (MPO) assay; type: in vivo, C57BL/6 mouse; settings: for inhibition in vivo at 12.5 mg/site: Mus musculus, Neutrophil, 12.5 mg of drug/site, i.d., 4 hours
Experimental: Neutrophil migration and infiltration into tissue spaces and the effect thereon of the compounds of the instant compounds can be tested. For example, immune complexes can be developed at a subcutaneous or intradermal site to draw neutrophils and the effect of the instant compounds on neutrophil migration can be assessed. A protocol is as follows. Mice are injected IV with bovine serum albumin (BSA). Then the mice are injected intradermally with antibody to BSA. For experimental animals, the test substance is administered concurrently intradermally or subcutaneously at the site of antibody deposition. After about four hours, the animal is sacrificed, the skin at the injection site is removed and then treated appropriately, such as assaying for myeloperoxidase, to determine the extent of neutrophil migration to the injection site.
An i.v. injection of 100 μl of BSA at 10 mg/ml in saline was followed by a 25 μl injection of anti-BSA i.d. on the back side of a pre-shaven C57BL/6 mouse. At time 0, along with the BSA and anti-BSA, the test compound or vehicle was administered i.d. at the site of the antibody injection in a volume of 25 μl (for example, 0.5 mg/μl solution). Four hours post injection, the skin was removed and a myeloperoxidase (MPO) assay performed (Mulligan et al., J. Imm. 151(10): 5666-5674, 1993).
Briefly, the skin sample was placed in a 17×100 mm test tube containing 2 ml of ice cold buffer (PBS, pH 7.4). The sample was ground for 30 seconds and placed on ice. The sample was vortexed for 10 seconds and then sonicated for three minutes in iced water. The sample was frozen in dry ice for 30 minutes. The sample then was thawed rapidly in a water bath for 10 minutes. An aliquot of 1.5 ml was removed and placed in a microfuge tube. The sample was spun at high speed in a cold room for 15 minutes. The sample then was titrated across the wells in a microtiter plate with the first well containing a 1:3 dilution of sample, for example, 50 μl of sample and 150 μl of buffer. Substrate and hydrogen peroxide were added to each well. Following a suitable incubation period, sodium azide was added to the wells and the absorbance monitored in a spectrophotometer at 460 nm. […]

[3] = system: ELAM; assay: ELISA for cell surface molecules: inhibition of ELAM expression on IL-1β stimulated HUVEC's; type: cell-based; settings: Homo sapiens; for inhibition at 3 µg/mL: @ 3 μg/ml
Experimental: (§1) The following were used in an ELISA for cell surface molecules: Costar 96-well TC plates, 2% gelatin, 1% BSA-Dulbecco's PBS w/CaMg^++, IL-1β, primary antibody e.g., 7A9 for ELAM (EP 505749) secondary biotinylated goat anti-mouse IgG/IgM, streptavidin-peroxidase, OPD substrate tablets and 30% hydrogen peroxide.
(§2) To begin, 96-well plates were coated with 2% gelatin (1 hour). The excess gelatin was aspirated from the wells. HUVEC's were seeded at 20,000 cells/well in a 200 μl volume.
(§3) Prior to assay, the test compounds were dissolved in DMSO at a stock concentration of 3 mg/ml. The stock solutions were set at room temperature and observed to see if dissolution was complete. When monolayers reached confluence (24-28 hours after seeding) the test compounds were added to the wells at final concentrations of 10 μg/ml, 3 μg/ml and 1 μg/ml. The plates were incubated for 1 hour at 37° C. Then, IL-1β at a final concentration of 1 μg/ml was added and the plates incubated for 4 hours at 37° C. The supernatant was removed from the plates by flicking into a sink. The wells were washed 3× with 1% BSA-Dulbecco's PBS.
(§4) Primary antibody (7A9 for ELAM or a suitable antibody for VCAM or ICAM) at a concentration of 2.5 μg/ml in a 50 μl volume was added to each well. The plates were incubated at 4° C. for 45 minutes to 1 hour. The wells were washed 3× with 1% BSA Dulbecco's PBS. Secondary antibody (biotinylated goat anti-mouse IgG-IgM, commercially available) at 50 μl/well at a final dilution of 1:1,000 was added to the well and the plates were incubated for 45 minutes to 1 hour at 4° C. The wells were washed 3× with 1% BSA-Dulbecco's PBS.
(§5) Streptavidin-peroxidase at 50 μl/well with a final dilution of 1:3,000 was added to each well and the plates were incubated at 4° C. for 30 minutes. Again the plates were washed 3× with 1% BSA-Dulbecco's PBS.
(§6) Substrate solution (OPD tablets, citric acid buffer and hydrogen peroxide solution) was prepared and added at 100 μl/well. The plates were incubated 15 minutes at room temperature on a plate shaker and the reaction was stopped with 12.5% sulfuric acid. Plates were read for absorbance values at 492 nm.
(§7) The degree of inhibition in expression of ELAM or VCAM by a compound of the instant invention is manifest as a decrease in specific primary antibody binding. In the following table the IC50 values are provided using a representative sampling of compounds of the instant invention.

[4] = system: VCAM; assay: ELISA for cell surface molecules: inhibition of VCAM expression on IL-1β stimulated HUVEC's; type: cell-based; settings: Homo sapiens; for inhibition at 3 µg/mL: @ 3 μg/ml
Experimental: as §1, §2, §3, §4, §5, §6, §7

Row | Structure (SMILES) | inhibition in vivo at 50 mg/kg [1] [%] | inhibition at 3 µg/mL [3] [%] | inhibition at 3 µg/mL [4] [%] | other results
1 | COc1c(C)cnc(CSc2nnc(C)o2)c1C [Compound 16, 2-(3,5-dimethyl-4-methoxy-2-pyridyl)methylthio-5-methyl-1,3,4-oxadiazole] | 85 |  |  | 
2 | COc1ccnc2c1CCCCC2Sc1nnc(C)o1 (stereo not shown) [Compound 19] | 87 |  |  | 
3 | COc1c(C)cnc(CSc2nnc(-c3cccs3)o2)c1C [Compound 35] | 45 |  |  | 
4 | c1ccc(CSc2nnc(-c3ccccn3)o2)cc1 [Compound 44] |  |  |  | inhibition in vivo at 25 mg/kg ([1]; 25 mg/kg i.p.): 86%
5 | c1ccc(CSc2nnc(-c3cccnc3)o2)cc1 [Compound 48] | 51 |  |  | 
6 | COc1c(C)cnc(CSc2nnc(-c3ccccc3O)o2)c1C [Compound 60] | 60 |  |  | 
7 | COc1c(C)cnc(CSc2nnc(-c3nc(-c4ccccc4)cs3)o2)c1C [Compound 67] | 55 |  |  | 
8 | c1ccc(CSc2nnc(-c3nc(-c4ccccc4)cs3)o2)cc1 [Compound 68] |  |  |  | decrease in MPO activity ([2]; test compound i.d. at site of antibody injection, 4 hours post injection): 55-60%
9 | COc1ccnc2c1CCCCC2Sc1nnc(-c2nc(-c3ccccc3)cs2)o1 (stereo not shown) [Compound 69] | 30 |  |  | 
10 | COc1c(C)cnc(C[S+]([O-])c2nnc(C)o2)c1C (stereo not shown) [Compound 70, 2-(3,5-dimethyl-4-methoxy-2-pyridyl)methylsulfinyl-5-methyl-1,3,4-oxadiazole] | 82 | 55 | 65 | inhibition in vivo at 12.5 mg/site [2]: 55%
11 | Cc1nnc([S+]([O-])Cc2ccccn2)o1 (stereo not shown) [Compound 71] |  | 30 | 40 | inhibition in vivo at 12.5 mg/site [2]: 40%
12 | Cc1nnc([S+]([O-])Cc2ccccc2)o1 (stereo not shown) [Compound 72] |  | 15 | 25 | 
13 | COc1ccnc2c1CCCCC2[S+]([O-])c1nnc(C)o1 (stereo not shown) [Compound 73] |  |  |  | inhibition at 10 µg/mL ([3]; @ 10 μg/mL): 20%; inhibition at 10 µg/mL ([4]; @ 10 μg/mL): 20%
14 | Cc1nnc([S+]([O-])Cc2nccn2Cc2ccccc2)o1 (stereo not shown) [Compound 75] |  | 55 | 100 | inhibition in vivo at 12.5 mg/site [2]: 20%
15 | Cc1nnc([S+]([O-])Cc2ncn(Cc3ccccc3)c2C)o1 (stereo not shown) [Compound 76] |  |  |  | inhibition in vivo at 12.5 mg/site [2]: 20%
16 | CCc1nnc([S+]([O-])Cc2ncc(C)c(OC)c2C)o1 (stereo not shown) [Compound 79] |  | 35 | 50 | 
17 | CCCc1nnc([S+]([O-])Cc2ncc(C)c(OC)c2C)o1 (stereo not shown) [Compound 80] |  | 45 | 70 | 
